Consider ten compounds from US5001127A, “4-substituted pyrazolo[3,4-d]pyrimidine derivatives” (Ortho Pharmaceutical Corporation, priority 1989, dated 1991).

Like-named read-outs stand apart in the source and are kept apart here.

The assay concerns Adult mongrel dogs. The assay is described as follows: Cardiotonic activity in anesthetized dogs (MAP, HR, dP/dtmax, contractile force), iv infusion. Type of assay: in vivo. The conditions noted are these: for change in vivo at 1.875 mg/kg / ED (50% increase): Canis lupus familiaris; for ED (50% increase): dose producing 50% increase above baseline in myocardial contractile force, graphical estimation (n<3) or linear regression (n≥3), read-out: contractile force (CF) ED50. Here is the method: Adult mongrel dogs were anesthetized with sodium pentobarbital (45 mg/kg, i.p.) and artificially respired. Mean arterial pressure (MAP) was recorded from a cannulated femoral artery and drugs were infused into a cannulated femoral vein. The arterial pressure pulse was used to trigger a cardiotachometer for determination of heart rate (HR). Left ventricular pressure was measured with a Millar catheter and dP/dtmax was derived. A right thoracotomy was performed and myocardial contractile force (CF) was measured with a Walton Brodie strain gauge sutured to the right ventricle. The ventricular muscle was stretched to produce a baseline tension of 100 g. A standard dose of dopamine (10-15 ug/kg/min for 3 min) was administered to determine myocardial responsiveness to inotropic stimulation. Test compounds were solubilized in a small volume of DMF diluted to a final concentration of 10% in physiological saline. Alternatively, where possible, a soluble hydrochloride salt was prepared by addition of 0.1N HCl diluted in physiological saline. Vehicles were tested in appropriate volumes and found to exert less than a 5% effect on contractile force. For iv studies, compounds were administered by infusion pump (one drug per animal) at rates of 0.58-2.2 mL/min in three to four stepwise increasing doses. Each dose was infused over 5 min immediately after the effect of the previous dose peaked. MAP, HR, dP/dtmax and CF responses were continuously monitored on a Beckman or Gould recorder and expressed as a percent change from pre-drug control values vs. the cumulative dose of drug administered. For these studies, n represents the number of test animals used.
Quantitation of the inotropic potency was obtained by calculation of the contractile force (CF) ED50. This was defined as the dose of compound that produced a 50% increase above baseline in myocardial contractile force. The value was obtained from three to four point dose-response curves using either graphical estimation (n<3) or linear regression analysis (n≥3). Numbers in parentheses are number of animals screened.

[1] abbreviates: cumulative dose 1.875 mg/kg, femoral artery, read-out: MAP (mean arterial pressure), % Δ from control.
[2] abbreviates: cumulative dose 1.875 mg/kg, read-out: HR (heart rate), % Δ from control.
Setting [3] is: cumulative dose 1.875 mg/kg, read-out: dP/dt (left ventricular dP/dtmax), % Δ from control.
Setting [4] is: cumulative dose 1.875 mg/kg, right ventricle strain gauge, read-out: CF (myocardial contractile force), % Δ from control.

`OC(CNc1ncnc2[nH]ncc12)CN1CCN(C(c2ccc(F)cc2)c2ccc(F)cc2)CC1` (stereo not drawn) [Example 7, 4-[3-[4-Bis(4-fluorophenyl)methyl]-1-piperazinyl]-2-hydroxypropylamino-1H-pyrazolo[3,4-d]pyrimidine sesquihydrate]: the change in vivo at 1.875 mg/kg by setting is: under setting [1], 6%; under setting [2], -20%; under setting [3], 33%; under setting [4], 111%.
In the case of `OC(CSc1ncnc2[nH]ncc12)CN1CCN(C(c2ccc(F)cc2)c2ccc(F)cc2)CC1` (stereo not drawn) [Example 1], the ED (50% increase) was 0.225 mg/kg. Also, the change in vivo at 1.875 mg/kg under setting [1] was -3%. Besides, the change in vivo at 1.875 mg/kg under setting [2] was -10%. Further, the change in vivo at 1.875 mg/kg under setting [3] was 124%. Moreover, the change in vivo at 1.875 mg/kg under setting [4] was 205%.
As to `CCN(CC(O)CN1CCN(C(c2ccc(F)cc2)c2ccc(F)cc2)CC1)c1ncnc2[nH]ncc12` (stereo not drawn) [Example 10, 4-[3-[4-Bis(4-fluorophenyl)methyl]-1-piperazinyl]-2-hydroxypropyl-N-ethylamino]-1H-pyrazolo[3,4-d]pyrimidine.1/4 Hydrate], the change in vivo at 1.875 mg/kg under setting [1] stood at 3%, the change in vivo at 1.875 mg/kg under setting [2] turned out to be 13%, the change in vivo at 1.875 mg/kg under setting [3] amounted to 44% and the change in vivo at 1.875 mg/kg under setting [4] was determined as 63%.
The matching figures for `OC(CSc1ncnc2[nH]ncc12)CN1CCN(C(c2ccccc2)c2ccccc2)CC1` (stereo not drawn) [Example 2, 4-[2-Hydroxy-1-[(diphenylmethyl)piperazin-4-yl)-3-propanylthio]-1H-pyrazolo[3,4-d]pyrimidine Hemihydrate]: -12%, -11%, 48% and 97%.
As to `OC(COc1ncnc2c1cnn2C1CCCCO1)CN1CCN(C(c2ccc(F)cc2)c2ccc(F)cc2)CC1` (stereo not drawn) [Example 3, 4-[3-[4-[Bis(4-fluorophenyl)methyl]-piperazin-1-yl]-2-hydroxy-propoxy]-1-(tetrahydropyran-2-yl)pyrazolo[3,4-d]pyrimidine], the change in vivo at 1.875 mg/kg by setting is: under setting [1], -13%; under setting [2], 1%; under setting [3], 1%; under setting [4], 14%.
Consider `CC(=O)OC(CNc1ncnc2[nH]ncc12)CN1CCN(C(c2ccc(F)cc2)c2ccc(F)cc2)CC1` (stereo not drawn) [Example 8, 4-[3-[4-Bis(4-fluorophenyl)methyl]-1-piperazinyl]-2-acetoxypropylamino-1H-pyrazolo[3,4-d]pyrimidine Hemihydrate], for which the change in vivo at 1.875 mg/kg is, setting by setting: under setting [1], 6%; under setting [2], -1%; under setting [3], 61%; under setting [4], 135%.
As for `OC(CSc1ncnc2c1cnn2CC1CO1)CN1CCN(C(c2ccccc2)c2ccccc2)CC1` (stereo not drawn) [Example 5, 1-(1,2-Epoxy-3-propanyl)-4-[1-(diphenylmethylpiperazin-4-yl]-2-hydroxy-3-propanylthio]-1H-pyrazolo[3,4-d]pyrimidine], under “cumulative dose 1.875 mg/kg”, the “HR (heart rate), % Δ from control” value is reported as -14 % Δ from control and the “dP/dt (left ventricular dP/dtmax), % Δ from control” value was determined as 28 % Δ from control. In addition, where the note is “cumulative dose 1.875 mg/kg, femoral artery”, the “MAP (mean arterial pressure), % Δ from control” value was -8 % Δ from control. In addition, the “CF (myocardial contractile force), % Δ from control” value (cumulative dose 1.875 mg/kg, right ventricle strain gauge) came to 38 % Δ from control.
Regarding `OC(CSc1ncnc2[nH]ncc12)CN1CCN(C(c2ccc(Cl)cc2)c2ccc(Cl)cc2)CC1` (stereo not drawn) [Example 4, 4-[1-[1-[Bis(4-chlorophenyl)methyl]piperazin-4-yl]-2-hydroxy-3-pronanylthio]-1H-pyrazolo[3,4-d]pyrimidine], the ED (50% increase) is 0.45 mg/kg. The change in vivo at 1.875 mg/kg under setting [1] was found to be 8%. Further, the change in vivo at 1.875 mg/kg under setting [2] stood at 1%. For the same compound, the change in vivo at 1.875 mg/kg under setting [3] was found to be 90%. Moreover, under setting [4], the change in vivo at 1.875 mg/kg was 163%.
On to `CN(CC(O)CN1CCN(C(c2ccc(F)cc2)c2ccc(F)cc2)CC1)c1ncnc2[nH]ncc12` (stereo not drawn) [Example 9, 4-[3-[4-Bis(4-fluorophenyl)methyl-1-piperazinyl]-2-hydroxypropylamino-N-methylamino-1H-pyrrazolo[3,4-d]pyrimidine Hemihydrate], for which the change in vivo at 1.875 mg/kg by setting is: under setting [1], 4%; under setting [2], 3%; under setting [3], 52%; under setting [4], 54%.
Take `CON(CC(O)CN1CCN(C(c2ccc(F)cc2)c2ccc(F)cc2)CC1)c1ncnc2[nH]ncc12` (stereo not drawn) [Example 11, 4-[3-[4-Bis(4-fluorophenyl)methyl-1-piperazinyl-2-hydroxypropyl-N-methoxyamino]-(1H)-pyrazolo[3,4-d]pyrimidine.5/4 Hydrate]: the change in vivo at 1.875 mg/kg was -2% under setting [1], 5% under setting [2], 25% under setting [3] and 37% under setting [4].
